In assay [1] the test system is FRDA lymphocytes. The assay is described as follows: Suppression of lipid peroxidation (C11-BODIPY581/591, FACS) in FRDA lymphocytes treated with diethyl maleate. Particulars: Lymphocyte, DEM, read-out: Scavenging activity (%), suppression of lipid peroxidation. Format: cell-based. The text has this:
Several methods for assaying lipid peroxidation in vitro have been developed (Kuypers et al. (1987) Biochim Biophys Acta. 25, 266-274; Pap et al. (1999) FEBS Lett. 453, 278-282; Drummen et al. (2002) Free RadicBiol Med. 33, 473-490). Almost all of these methods are based on inhibition of free radical-induced oxidation reactions. A widely used fluorescence assay for lipid peroxidation uses lipid soluble cis-parinaric acid as a probe. cis-parinaric acid loses its fluorescence (λexc/em: 320/432 nm) upon interaction with peroxyl radicals and retains its fluorescence in the presence of radical quenchers. cis-parinaric acid is, however, air sensitive, photolabile and absorbs light in the UV region of the spectrum (at ˜320 nm). […] In practical terms, the results obtained using cis-parinaric as a probe for lipid peroxidation are confounded due to the overlapping of the compounds emission spectra with the cis-parinaric emission spectrum. C11-BODIPY^581/591 Oxidation to Measure Lipid Peroxidation To overcome the problem of spectral overlap using cis-parinaric acid, a fluorescence assay for lipid peroxidation using a lipophilic probe belonging to the BODIPY class of fluorescent dyes was used C11-BODIPY^581/591 (4,4-difluoro-5(4-phenyl-1,3-butadienyl)-4-bora-3a, 4a-diaza-s-indacene-3-propionic acid) fluorescent shifts from red to green upon oxidation. C11-BODIPY^581/591 (Molecular Probes, Eugene, Oreg., USA) stock solution concentrations were determined by measuring the absorption of C11-BODIPY^581/591 at 582 nm using a molar extinction coefficient of 140,000 mol^−1 cm^−1 (R. P. Haugland, (1999) Handbook of Fluorescent Probes and Research Chemicals, Molecular Probes, Inc., Eugene, Oreg.). The lipid peroxidation inducer 2,2′-Azobis (2-amidino-propane dihydrochloride) (AAPH) and the antioxidant compound α-tocopherol (α-TOH) were obtained from Sigma (St. Louis, Mo., USA). Phospholipid bilayers were prepared from 1-stearoyl-2-oleoyl-phosphatidylcholine (SOPC) and 1,2-dilinoleoyl-phosphatidylcholine (DLPC) and were purchased from Avanti® polar lipids, Inc., (Alabaster, Ala., USA). Preparation of Liposomes Phosphotidylcholine (PC) liposomes were prepared as described before (Guey-Shuang et al. (1982) Lipids. 17, 403-413). Briefly, DLPC (25 mg) were dissolved in chloroform and the solvent was removed by nitrogen evaporation (˜2 hours) to give a thin film of PC in a round bottom flask. The lipid film was hydrated with 50 mL of 10 mM Tris-HCl (pH 7.4), 100 mM KCl, shaken and sonicated for 15 seconds. The liposomes obtained were filtered several times through […] membrane filter. Measurement of C11-BODIPY^581/591 Oxidation C11-BODIPY^581/591 was incorporated into liposomes and oxidized by peroxyl radicals derived from the decomposition of AAPH in the presence and absence of compounds. Liposomes (1 mg/mL), suspended in 10 mM Tris-HCl (pH 7.4), 100 mM KCl, were transferred to a quartz 1 mL cuvette and placed in a Varian Cary Eclipse fluorometer (Varian, Cary, N.C.) equipped with a thermostatted cuvette holder at 40° C. Liposomes were pre-incubated for 10 min with 200 nM C11-BODIPY^581/591 to allow their incorporation into the lipid phase of the liposomes. After the addition of AAPH (10 mM) the decay of the red fluorescence was followed at λ exc=570 nm, λ em=600 nm. Relative fluorescence units were normalized to 100% intensity. Results obtained were verified by repeating experiments N=3 independent experiments. Measurement of C11-BODIPY^581/591 Oxidation in Cell Culture A quantitative FACS analysis of lipid peroxidation of FRDA lymphocytes, which had been treated with diethyl maleate following incubation in the presence and absence of the test compounds, was measured as described (Khdour et al. (2011) Pharmaceut. Res. 28, 2896-2909). Briefly, FRDA lymphocytes (5×10^5 cell/mL) were treated with the test compounds at final concentrations of 5 and 10 μM and incubated at 37° C. for 16 h in a humidified atmosphere containing 5% CO2 in air. […]

The test system of assay [2] is Friedreich's ataxia lymphoblast cell line GM15850. The assay is described as follows: Cytoprotection (trypan blue exclusion assay) of DEM-treated FRDA lymphocytes. Format: cell-based. The note with it: Homo sapiens, GM15850, DEM alone 18 ± 10% viability, read-out: Cytoprotection (cell viability, % of untreated control). The protocol: Cell viability was determined by trypan blue exclusion assay in Friedreich's ataxia lymphoblast cell line GM15850 (Coriell Institute, New Jersey). This technique was used to assess the cytoprotective effects of the tested compounds in cultured cells treated with DEM to induce cell death by GSH depletion. The viability of DEM-treated FRDA cells was determined by their ability to exclude the dye trypan blue. Viable cells exclude trypan blue, whereas non-viable cells take up the dye and stain blue. Briefly, FRDA lymphocytes were grown in RPMI 1640 medium (Gibco) supplemented with 15% fetal calf serum, 2 mM glutamine (HyClone) and 1% penicillin-streptomycin mix (Cellgro). Cells were seeded at a density of 5×10^5 cells/mL and treated with different concentrations of the indicated compounds. Cells were incubated at 37° C. in a humidified atmosphere of 5% CO2 in air for 17 h. After pre-incubation, the cells were treated with 5 mM DEM. Cell viability was determined by staining cells with 0.4% trypan blue using a hemacytometer. At least 500 cells were counted in each experimental group. At the time of assay, <20% of DEM treated cells were viable (trypan blue negative), whereas in non DEM-treated control, >90% cells were viable. Cell viability was expressed as the percentage of control. Data are expressed as means±S.E.M. (n=3).
Cell viability was determined by trypan blue exclusion assay in Friedreich's ataxia lymphoblast cell line GM15850 (Coriell Institute). This technique was used to assess the cytoprotective effects of the compounds in cultured cells treated with diethyl maleate (DEM) to induce cell death by glutathione (GSH) depletion. The viability of DEM-treated FRDA cells was determined by their ability to exclude the dye trypan blue. Viable cells exclude trypan blue, whereas non-viable cells take up the dye and stain blue. […] Benzoquinone analogue 9 afforded greater cyoprotection to FRDA lymphocytes at 5 μM concentration than did the tert-butyl ester 6 (74 vs 50%).

For assay [3], the target named is bovine heart mitochondrial complex I (Bos taurus, UniProt P03887+P17694+P42026). The assay is described as follows: Complex I (NADH-Q1 oxidoreductase) inhibition in submitochondrial particles. The assay is classed as biochemical. The note with it: submitochondrial particles, 30° C.; for IC50: read-out: Complex I inhibition IC50; for Emax: read-out: Complex I inhibition Imax.

For assay [4], the system named is NADH oxidase (complexes I, III and IV). In words: NADH oxidase activity (complexes I, III and IV) in submitochondrial particles. Format: biochemical, bovine.

Some results are limits rather than exact numbers.

Chain of bovine heart mitochondrial complex I (P25708 21-464): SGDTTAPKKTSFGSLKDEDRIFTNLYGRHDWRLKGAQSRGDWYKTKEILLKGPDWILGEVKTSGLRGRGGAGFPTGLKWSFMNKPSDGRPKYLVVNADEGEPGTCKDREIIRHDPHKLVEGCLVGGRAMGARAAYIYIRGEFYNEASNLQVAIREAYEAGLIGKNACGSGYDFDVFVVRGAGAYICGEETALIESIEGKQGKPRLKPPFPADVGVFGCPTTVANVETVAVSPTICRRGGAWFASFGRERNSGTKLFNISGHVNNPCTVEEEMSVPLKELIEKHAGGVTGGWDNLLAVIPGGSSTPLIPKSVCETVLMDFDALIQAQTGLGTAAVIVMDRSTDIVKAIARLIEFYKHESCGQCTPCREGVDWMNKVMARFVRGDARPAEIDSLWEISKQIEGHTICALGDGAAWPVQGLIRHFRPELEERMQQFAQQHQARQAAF
Chain of bovine heart mitochondrial complex I (P42026 38-216): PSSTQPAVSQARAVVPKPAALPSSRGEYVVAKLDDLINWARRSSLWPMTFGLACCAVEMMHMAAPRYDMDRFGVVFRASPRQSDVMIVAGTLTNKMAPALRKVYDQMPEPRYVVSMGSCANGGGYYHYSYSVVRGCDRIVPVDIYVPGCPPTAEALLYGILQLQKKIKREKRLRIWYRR
Chain of bovine heart mitochondrial complex I (P17694 34-463): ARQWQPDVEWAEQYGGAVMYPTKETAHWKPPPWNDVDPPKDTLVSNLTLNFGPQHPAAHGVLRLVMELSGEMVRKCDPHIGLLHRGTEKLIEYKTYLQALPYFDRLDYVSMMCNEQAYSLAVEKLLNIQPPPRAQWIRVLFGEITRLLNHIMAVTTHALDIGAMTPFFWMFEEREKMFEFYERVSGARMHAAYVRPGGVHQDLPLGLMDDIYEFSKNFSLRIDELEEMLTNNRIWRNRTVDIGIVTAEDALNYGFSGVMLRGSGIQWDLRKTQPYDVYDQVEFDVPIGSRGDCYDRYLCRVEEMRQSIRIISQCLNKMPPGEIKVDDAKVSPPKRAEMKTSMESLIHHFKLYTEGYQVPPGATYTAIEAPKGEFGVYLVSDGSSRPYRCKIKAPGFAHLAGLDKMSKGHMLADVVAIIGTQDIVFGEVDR
Chain of bovine heart mitochondrial complex I (P15690 24-727, further chain): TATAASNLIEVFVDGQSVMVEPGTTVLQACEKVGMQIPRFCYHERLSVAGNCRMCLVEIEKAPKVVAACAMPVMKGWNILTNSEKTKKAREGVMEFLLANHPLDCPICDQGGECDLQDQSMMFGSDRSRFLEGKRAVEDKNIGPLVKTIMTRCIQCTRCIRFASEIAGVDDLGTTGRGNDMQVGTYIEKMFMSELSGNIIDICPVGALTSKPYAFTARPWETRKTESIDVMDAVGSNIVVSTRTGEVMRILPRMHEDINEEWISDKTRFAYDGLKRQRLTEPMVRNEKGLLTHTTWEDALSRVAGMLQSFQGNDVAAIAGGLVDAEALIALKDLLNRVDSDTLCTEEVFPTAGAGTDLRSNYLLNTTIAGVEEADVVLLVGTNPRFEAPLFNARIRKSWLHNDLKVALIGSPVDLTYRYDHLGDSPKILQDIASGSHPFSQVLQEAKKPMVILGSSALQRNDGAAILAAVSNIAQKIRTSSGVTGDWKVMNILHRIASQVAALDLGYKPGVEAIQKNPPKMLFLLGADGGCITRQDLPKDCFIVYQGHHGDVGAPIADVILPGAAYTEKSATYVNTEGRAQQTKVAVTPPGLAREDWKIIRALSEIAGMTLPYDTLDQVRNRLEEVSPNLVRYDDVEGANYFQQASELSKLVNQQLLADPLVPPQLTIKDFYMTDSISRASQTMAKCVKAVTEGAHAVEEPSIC
Chain of bovine heart mitochondrial complex I (P03887 whole entry): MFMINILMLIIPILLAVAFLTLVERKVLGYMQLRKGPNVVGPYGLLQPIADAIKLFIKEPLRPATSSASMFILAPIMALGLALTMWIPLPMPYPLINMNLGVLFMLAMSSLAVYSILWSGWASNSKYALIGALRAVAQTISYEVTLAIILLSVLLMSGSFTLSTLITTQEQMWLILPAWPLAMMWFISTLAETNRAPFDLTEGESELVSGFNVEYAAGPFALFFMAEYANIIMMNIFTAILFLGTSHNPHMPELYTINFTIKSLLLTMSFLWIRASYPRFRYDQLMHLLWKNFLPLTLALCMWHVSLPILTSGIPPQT
Chain of bovine heart mitochondrial complex I (P42028 37-212, further chain): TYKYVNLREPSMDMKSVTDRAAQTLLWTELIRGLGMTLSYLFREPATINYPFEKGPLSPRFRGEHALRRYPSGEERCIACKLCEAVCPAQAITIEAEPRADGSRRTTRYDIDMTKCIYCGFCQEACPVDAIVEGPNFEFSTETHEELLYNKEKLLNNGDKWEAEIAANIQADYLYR

A word on the viability: it is a per cent measure of how many cells are alive, often set against a control. Regarding `CCCCCCCCCCCCCC1=C(OC)C(=O)C=C(N(C)CCCC(=O)OC(C)(C)C)C1=O` [Compound 30, tert-butyl 4-((4-methoxy-3,6-dioxo-5-tridecylcyclohexa-1,4-dienyl)(methyl)amino)-butanoate], in assay [1], the inhibition at 5 µM stood at 97% and the inhibition at 10 µM came to 100%. In assay [2], the viability at 1 µM was 64 ± 15% and the viability at 2.5 µM amounted to 82 ± 5%.

Usually IC50 stands for the concentration needed to halve the response being measured. In the case of `CCCCCCCCCCCCCC1=C(OC)C(=O)C=C(N(C)CCCC(=O)OCCCCCC)C1=O` [Compound 24, Hexyl 4-((4-methoxy-3,6-dioxo-5-tridecylcyclohexa-1,4-dienyl)(methyl)amino)butanoate], the IC50 in assay [3] came to 1.9 ± 0.1 µM. In assay [3], the Emax is 90 ± 0.7%. Besides, the “NADH oxidase activity (Complex I, III, IV) %” value in assay [4] (1 μM) came to 81 ± 1.5%; in assay [4] (5 μM), 33 ± 0.9%; in assay [4] (10 μM) it was 17 ± 0.4%.

Take `CCCCCCCCCCCCCC1=C(O)C(=O)C=C(NCCCC(=O)OCCCCCC)C1=O` [Compound 17, Hexyl 4-(4-hydroxy-3,6-dioxo-5-tridecylcyclohexa-1,4-dienylamino)butanoate]: in assay [1], the inhibition at 5 µM turned out to be 9 ± 2.5% and the inhibition at 10 µM came to 40 ± 9.9%. Moreover, the viability at 5 µM in assay [2] amounted to 49 ± 9.9%. Also, in assay [3], the IC50 was determined as 2 ± 0.4 µM and the Emax came to 51 ± 1.4%.

Regarding `CCCCCCCCCCCCCC1=C(OC)C(=O)C=C(NCCCC(=O)O)C1=O` [Compound 9, 4-(4-methoxy-3,6-dioxo-5-tridecylcyclohexa-1,4-dienylamino)butanoic Acid], in assay [1], the inhibition at 5 µM came to 41 ± 7.2% and the inhibition at 10 µM came to 51 ± 5%. The viability at 5 µM in assay [2] was determined as 74%. Further, in assay [3], the concentration for half-maximal inhibition (IC50) was found to be 1.9 ± 0.1 µM and the Emax worked out at 98 ± 2.8%.

On to `CCCCCCCCCCCCCC1=C(O)C(=O)C=C(NCCCC(=O)OCc2ccccc2)C1=O` [Compound 11, Benzyl 4-(4-hydroxy-3,6-dioxo-5-tridecylcyclohexa-1,4-dienylamino)butanoate], for which the viability at 5 µM in assay [2] turned out to be 48 ± 5.8%. In assay [3], the half-inhibitory concentration (IC50) is 1.7 ± 0.1 µM and the Emax turned out to be 70 ± 0.31%.

In the case of `CCCCCCCCCCCCCC1=C(OC)C(=O)C=C(N(C)C)C1=O` [Compound 26, 5-(dimethylamino)-2-methoxy-3-tridecylcyclohexa-2,5-diene-1,4-dione], in assay [2], the viability at 0.1 µM came to 53 ± 9%, the viability at 0.5 µM is 66 ± 3% and the viability at 2.5 µM is 90 ± 3%. Also, in assay [3], the half-maximal inhibitory concentration (IC50) is 1.6 ± 0.03 µM and the Emax was determined as 90 ± 1.1%. The “NADH oxidase activity (Complex I, III, IV) %” value in assay [4] (1 μM) was found to be 70 ± 2.1%. In addition, the “NADH oxidase activity (Complex I, III, IV) %” value in assay [4] (5 μM) worked out at 34 ± 0.6%. In addition, in assay [4] (10 μM), the “NADH oxidase activity (Complex I, III, IV) %” value is 15 ± 0.4%.

Regarding `CCCCCCCCCCCCCC1=C(OC)C(=O)C=C(NCCCC(=O)OCc2ccccc2)C1=O` [Compound 12, benzyl 4-(4-methoxy-3,6-dioxo-5-tridecylcyclohexa-1,4-dienylamino)butanoate], the viability at 5 µM in assay [2] came out at 71 ± 6.4%. Moreover, in assay [3], the IC50 came to 34 ± 2.5 µM and the Emax was ≥ 53%. Moreover, the “NADH oxidase activity (Complex I, III, IV) %” value in assay [4] (1 μM) was 67 ± 6.0%. In addition, in assay [4] (5 μM), the “NADH oxidase activity (Complex I, III, IV) %” value was determined as 48 ± 3.0%.

As to `CCCCCCCCCCCCCC1=C(O)C(=O)C=C(N(C)CCCC(=O)OCCCCCC)C1=O` [Compound 23, hexyl 4-((4-hydroxy-3,6-dioxo-5-tridecylcyclohexa-1,4-dienyl)(methyl)amino)-butanoate], the IC50 in assay [3] was determined as 3.4 ± 0.1 µM. Further, the Emax in assay [3] was found to be 78 ± 0.8%. For the same molecule, the figures for the “NADH oxidase activity (Complex I, III, IV) %” value in assay [4] (1 μM), in assay [4] (5 μM) and in assay [4] (10 μM) were 82 ± 2.4%, 36 ± 1.0% and 18 ± 0.5%, respectively.

Turning to `CCCCCCCCCCCCCC1=C(O)C(=O)C=C(NCCCC(=O)OCCCC)C1=O` [Compound 14, Butyl 4-(4-hydroxy-3,6-dioxo-5-tridecylcyclohexa-1,4-dienylamino)butanoate], the viability at 5 µM in assay [2] came to 58 ± 9%. In addition, in assay [3], the half-maximal inhibitory concentration (IC50) was found to be 11 ± 0.6 µM and the Emax is 58 ± 4%.

As to `CCCCCCCCCCCCCC1=C(O)C(=O)C=C(N(C)C)C1=O` [Compound 25, 5-(dimethylamino)-2-hydroxy-3-tridecylcyclohexa-2,5-diene-1,4-dione], in assay [2], the viability at 0.1 µM turned out to be 21 ± 3%, the viability at 0.5 µM stood at 18 ± 4% and the viability at 2.5 µM was 24 ± 3%. Besides, in assay [3], the half-inhibitory concentration (IC50) worked out at 1.5 ± 0.1 µM and the Emax was found to be 90 ± 3.4%. The “NADH oxidase activity (Complex I, III, IV) %” value in assay [4] (1 μM) turned out to be 18 ± 0.5%. Also, the “NADH oxidase activity (Complex I, III, IV) %” value in assay [4] (5 μM) was 6.6 ± 0.1%. In addition, the “NADH oxidase activity (Complex I, III, IV) %” value in assay [4] (10 μM) stood at 5.0 ± 0.1%.

Consider `CCCCCCCCCCCCCC1=C(O)C(=O)C=C(N(C)CCCC(=O)OC(C)(C)C)C1=O` [Compound 29, tert-butyl 4-((4-hydroxy-3,6-dioxo-5-tridecylcyclohexa-1,4-dienyl)(methyl)amino)-butanoate], for which, in assay [2], the viability at 1 µM was 21% and the viability at 2.5 µM is 74 ± 4%.
